Data reported in PMC8260868, “Protocol for improving diffraction quality of leucyl-tRNA synthetase 1 with methylation and post-crystallization soaking and cooling in cryoprotectants” (STAR Protocols, 2021).

How the values were obtained:
Assay type in all cases: binding
[1] = molecular target: T1, LARS1 (leucyl-tRNA synthetase 1) (Homo sapiens, UniProt Q9P2J5); test: microscale thermophoresis (Monolith NT.[…], RED-tris-NTA labelled His-LARS1)
T1 construct: full length 1-1176, His-tagged in pQE-80L (BamHI/HindIII), E. coli Rosetta (DE3); tag removal not mentioned; one molecule in the asymmetric unit; lysines reductively methylated in LARS1-methyl (6KR7)
T1 sequence (Q9P2J5 whole entry): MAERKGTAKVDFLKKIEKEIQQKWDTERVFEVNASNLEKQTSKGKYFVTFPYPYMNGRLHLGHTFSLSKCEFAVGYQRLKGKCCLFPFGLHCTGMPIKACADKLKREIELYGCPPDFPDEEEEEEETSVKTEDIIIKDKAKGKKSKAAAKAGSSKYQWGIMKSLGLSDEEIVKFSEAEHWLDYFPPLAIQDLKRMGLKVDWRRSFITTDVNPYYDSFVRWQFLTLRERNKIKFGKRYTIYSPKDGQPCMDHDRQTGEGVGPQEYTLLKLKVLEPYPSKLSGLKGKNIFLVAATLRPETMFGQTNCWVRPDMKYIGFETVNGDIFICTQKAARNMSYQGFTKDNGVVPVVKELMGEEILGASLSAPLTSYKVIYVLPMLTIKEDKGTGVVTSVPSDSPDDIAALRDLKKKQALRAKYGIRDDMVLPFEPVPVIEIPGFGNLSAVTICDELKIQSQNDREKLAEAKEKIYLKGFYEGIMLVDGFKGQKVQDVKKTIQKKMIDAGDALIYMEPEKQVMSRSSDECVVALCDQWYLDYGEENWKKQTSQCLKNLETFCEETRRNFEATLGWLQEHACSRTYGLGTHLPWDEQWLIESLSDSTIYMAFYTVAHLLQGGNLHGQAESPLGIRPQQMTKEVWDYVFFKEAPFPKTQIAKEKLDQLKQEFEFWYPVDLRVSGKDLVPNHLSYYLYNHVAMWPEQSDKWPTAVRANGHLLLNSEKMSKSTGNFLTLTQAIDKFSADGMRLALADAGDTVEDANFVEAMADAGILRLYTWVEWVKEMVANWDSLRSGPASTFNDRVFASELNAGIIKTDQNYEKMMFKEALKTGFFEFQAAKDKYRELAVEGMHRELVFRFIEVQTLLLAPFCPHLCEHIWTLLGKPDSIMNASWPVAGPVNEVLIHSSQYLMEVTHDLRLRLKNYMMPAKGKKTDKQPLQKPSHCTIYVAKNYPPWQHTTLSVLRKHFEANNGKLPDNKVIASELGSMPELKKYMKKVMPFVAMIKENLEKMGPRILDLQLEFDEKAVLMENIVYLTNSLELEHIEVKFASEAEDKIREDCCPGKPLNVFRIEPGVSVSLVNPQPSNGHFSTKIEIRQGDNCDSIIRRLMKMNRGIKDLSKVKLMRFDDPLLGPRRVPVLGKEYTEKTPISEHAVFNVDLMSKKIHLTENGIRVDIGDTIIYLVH

[2] = molecular target: T1, LARS1 (leucyl-tRNA synthetase 1); test: X-ray crystallography, co-crystal; details: 2 mM leucine; bis-tris pH 6.5, 1.6 M ammonium sulfate; LARS1-Leu^syn, synthetic site
[3] = molecular target: T1, LARS1 (leucyl-tRNA synthetase 1); test: intrinsic-fluorescence DSF (Tycho NT.[…]); details: 2, 5, 10, 20 mM leucine; Tris-HCl pH 7.5, 150 mM NaCl, 5 mM MgCl2, 2 mM DTT, 0.1% Tween-20; 1 mg/mL LARS1

Q: For `CC(C)C[C@H](N)C(=O)O` [L-Leucine], which Kd [1] is on record?
A: The Kd was 119 ± 63.1 µM.

Q: And the “X-ray crystallography, co-crystal” value [2]?
A: The value was “prepare LARS1-Leu^syn crystals subsequently deposited in PDB with the code 6KQY”.

Q: What about the Ti [3] of the same molecule?
A: Its Ti is “LARS1 was incubated with leucine and the inflection temperature (Ti) was measured”.
